Measured values reported in patent publication US20040014694A1, “Use of docetaxel/doxorubicin/cyclophosphamide in adjuvant therapy” (priority 2002, published 2004).

Assays:
[1] = test system: metastatic breast cancer (MBC); settings: MBC progressing despite previous anthracycline containing chemotherapy; cited from earlier work
[2] = In-house proprietary studies of docetaxel alone, overall response rate; format: in vivo; settings: first line therapy
Description: Docetaxel alone, in several in-house proprietary studies, gave overall response rates of 40 to 43% (in second line therapy at a dose of 100 mg/m^2), 48% (in first line therapy at a dose of 75 mg/m^2) and 61% (in first line therapy at a dose of 100 mg/m^2).

advanced breast cancer = advanced breast cancer after anthracycline failure; cited from earlier work

CC(=O)O[C@@]12CO[C@@H]1C[C@H](O)[C@@]1(C)C(=O)[C@H](O)C3=C(C)[C@@H](OC(=O)[C@H](O)[C@@H](NC(=O)OC(C)(C)C)c4ccccc4)C[C@@](O)([C@@H](OC(=O)c4ccccc4)[C@H]21)C3(C)C [Docetaxel, docetaxel]
response, median time to progression (TTP), and survival compared with MV [1]: significantly superior to MV | overall response rate ([2]; dose 75 mg/m^2): 48% | overall response rate ([2]; dose 100 mg/m^2): 61% | response rate and TTP compared with MF (advanced breast cancer): superior to sequential methotrexate and 5-fluoruracil
